Publication PMC3690672 (European journal of nuclear medicine and molecular imaging, 2009)
Several values for one entry are separate records, joined by “and”; a condition that tells them apart may be missing. Equal entries are not always repeated. Structures can show the parent of a compound that is named as a salt. Where two headings read alike, the source gives them in different places.

How the values were obtained:
[1] = molecular target: T1, P-glycoprotein (P-gp) at the blood-brain barrier (Rattus norvegicus, UniProt Q6PSM0); assay: in vivo
T1 sequence (Q6PSM0 1-1272): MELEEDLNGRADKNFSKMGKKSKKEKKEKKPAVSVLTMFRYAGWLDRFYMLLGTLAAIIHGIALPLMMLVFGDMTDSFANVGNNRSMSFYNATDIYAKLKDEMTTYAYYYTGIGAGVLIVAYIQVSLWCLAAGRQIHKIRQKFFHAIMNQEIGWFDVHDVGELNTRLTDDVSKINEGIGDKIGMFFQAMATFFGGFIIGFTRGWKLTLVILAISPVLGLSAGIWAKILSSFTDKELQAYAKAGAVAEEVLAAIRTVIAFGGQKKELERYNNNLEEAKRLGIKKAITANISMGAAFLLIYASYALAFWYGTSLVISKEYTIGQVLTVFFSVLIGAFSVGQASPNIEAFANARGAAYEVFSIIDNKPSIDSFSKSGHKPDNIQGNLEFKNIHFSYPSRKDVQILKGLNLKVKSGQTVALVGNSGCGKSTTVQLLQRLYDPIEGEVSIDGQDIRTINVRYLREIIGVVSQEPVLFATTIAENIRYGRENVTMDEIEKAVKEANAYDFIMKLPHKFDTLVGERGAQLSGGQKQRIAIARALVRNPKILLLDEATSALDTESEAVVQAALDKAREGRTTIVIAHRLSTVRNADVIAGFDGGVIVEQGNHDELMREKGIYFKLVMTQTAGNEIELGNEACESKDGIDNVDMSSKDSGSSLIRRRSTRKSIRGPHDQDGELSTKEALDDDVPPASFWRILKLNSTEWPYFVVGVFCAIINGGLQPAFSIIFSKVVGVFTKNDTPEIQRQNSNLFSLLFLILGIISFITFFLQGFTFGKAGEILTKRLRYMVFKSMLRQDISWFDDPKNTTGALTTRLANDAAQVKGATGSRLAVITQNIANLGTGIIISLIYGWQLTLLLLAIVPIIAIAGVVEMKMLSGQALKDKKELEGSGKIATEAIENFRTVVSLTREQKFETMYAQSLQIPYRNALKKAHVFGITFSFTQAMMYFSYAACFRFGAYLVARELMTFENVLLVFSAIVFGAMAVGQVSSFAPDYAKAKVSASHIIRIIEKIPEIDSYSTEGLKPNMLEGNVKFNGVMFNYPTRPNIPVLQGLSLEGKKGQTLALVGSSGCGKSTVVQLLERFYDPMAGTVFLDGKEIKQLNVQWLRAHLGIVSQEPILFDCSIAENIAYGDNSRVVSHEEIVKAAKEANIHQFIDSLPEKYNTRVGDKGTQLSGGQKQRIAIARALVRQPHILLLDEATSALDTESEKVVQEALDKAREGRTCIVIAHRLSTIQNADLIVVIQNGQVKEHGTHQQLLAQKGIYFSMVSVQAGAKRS

[2] = tested on: P-glycoprotein (P-gp) at the blood-brain barrier; assay type: in vivo, rat; conditions: tariquidar 15 mg/kg or elacridar 5 mg/kg at 60 min after radiotracer injection
[3] = Tariquidar or elacridar concentrations in plasma and brain by LC/MS; assay type: in vivo; conditions: rat, 5 mg/kg; for concentration at 180 min: intravenous
[4] = tested on: multidrug resistance-associated proteins (MRPs), such as MRP1; conditions: cited from earlier work
[5] = molecular target: T1, P-glycoprotein (P-gp) at the blood-brain barrier; conditions: for DV (Logan) of VPM / DV of VPM (2T4K model) / K1 of VPM (2T4K model) / k2 of VPM (2T4K model) / k3 of VPM (2T4K model) / k4 of VPM (2T4K model): whole brain, PET 120 min after, mean±SD
[6] = Hill fit of whole-brain DV vs inhibitor dose

For `COc1cc2c(cc1OC)CN(CCc1ccc(NC(=O)c3cccc4c(=O)c5cccc(OC)c5[nH]c34)cc1)CC2` [elacridar, elacridar hydrochloride], the EC50 at 180 min [1] was 0.115 ± 0.0222 µg/mL, the ED50 at 120 min ([1]; Sprague-Dawley, iv) was 1.2 ± 0.1 mg/kg and the “Time of peak VPM brain uptake (maximum effect) after inhibitor injection” value [2] was 30 ± 5 min and 30 min. It also gave a concentration at 180 min ([3]; brain) of 5190 ± 1420 ng/mL, a Kp at 180 min ([3]; brain, iv) of 16.8 ± 5.8 and a concentration at 180 min ([3]; plasma) of 316 ± 61 ng/mL. The “Inhibition of MRPs, such as MRP1” value [4] was “do not inhibit”, the “DVmax (maximum effect)” value [5, 6] was 11.4±0.7 ml·ml^−1 and the Hill factor n [5, 6] was 5.2±2.8. The “Maximum increase in VPM brain distribution (DV) over baseline” value ([5]; at maximum effective doses, rat brain) was “up to 11 fold”, the “Whole-brain DV increase (factor) as compared to baseline scans” value (shortened to “Whole-brain DV increase (factor)”) ([5]; inhibitor 0.3 mg/kg) was 1.0±0.6 and the “Whole-brain DV increase (factor)” value ([5]; inhibitor 1 mg/kg) was 3.5±1.5. For the same compound, the “Whole-brain DV increase (factor)” value ([5]; inhibitor 2 mg/kg) was 9.4±1.5, the “Whole-brain DV increase (factor)” value ([5]; inhibitor 5 mg/kg) was 8.9±1.4 and the “Whole-brain DV increase (factor)” value ([5]; inhibitor 7.5 mg/kg) was 11.3±0.2. The “DV (Logan) of VPM” value ([5]; inhibitor 0.3 mg/kg i.v.) was 1.22±0.51 (2.9) ml·ml^−1, the “DV of VPM (2T4K model)” value ([5]; inhibitor 0.3 mg/kg i.v.) was 1.28±0.54 (3.1) ml·ml^−1 and the “K1 of VPM (2T4K model)” value ([5]; inhibitor 0.3 mg/kg i.v.) was 0.13±0.10 (16.5) ml·ml^−1·min^−1. For the same compound, the “k2 of VPM (2T4K model)” value ([5]; inhibitor 0.3 mg/kg i.v.) was 0.29±0.06 (36.5) min^−1, the “k3 of VPM (2T4K model)” value ([5]; inhibitor 0.3 mg/kg i.v.) was 0.14±0.02 (41.4) min^−1 and the “k4 of VPM (2T4K model)” value ([5]; inhibitor 0.3 mg/kg i.v.) was 0.07±0.01 (16.7) min^−1. For the same compound, the “DV (Logan) of VPM” value ([5]; inhibitor 1 mg/kg i.v.) was 4.47±1.51 (0.9) ml·ml^−1, the “DV of VPM (2T4K model)” value ([5]; inhibitor 1 mg/kg i.v.) was 4.49±1.51 (2.9) ml·ml^−1 and the “K1 of VPM (2T4K model)” value ([5]; inhibitor 1 mg/kg i.v.) was 0.57±0.19 (18.1) ml·ml^−1·min^−1. The “k2 of VPM (2T4K model)” value ([5]; inhibitor 1 mg/kg i.v.) was 0.33±0.10 (78.9) min^−1, the “k3 of VPM (2T4K model)” value ([5]; inhibitor 1 mg/kg i.v.) was 0.29±0.11 (93.2) min^−1 and the “k4 of VPM (2T4K model)” value ([5]; inhibitor 1 mg/kg i.v.) was 0.19±0.06 (33.3) min^−1. For the same compound, the “DV (Logan) of VPM” value ([5]; inhibitor 2 mg/kg i.v.) was 11.72±1.47 (0.6) ml·ml^−1, the “DV of VPM (2T4K model)” value ([5]; inhibitor 2 mg/kg i.v.) was 12.00±1.49 (2.4) ml·ml^−1 and the “K1 of VPM (2T4K model)” value ([5]; inhibitor 2 mg/kg i.v.) was 0.92±0.16 (7.2) ml·ml^−1·min^−1. For the same compound, the “k2 of VPM (2T4K model)” value ([5]; inhibitor 2 mg/kg i.v.) was 0.18±0.06 (42.2) min^−1, the “k3 of VPM (2T4K model)” value ([5]; inhibitor 2 mg/kg i.v.) was 0.29±0.09 (68.5) min^−1 and the “k4 of VPM (2T4K model)” value ([5]; inhibitor 2 mg/kg i.v.) was 0.22±0.03 (21.1) min^−1. The “DV (Logan) of VPM” value ([5]; inhibitor 5 mg/kg i.v.) was 11.16±1.44 (1.1) ml·ml^−1, the “DV of VPM (2T4K model)” value ([5]; inhibitor 5 mg/kg i.v.) was 11.40±1.45 (3.8) ml·ml^−1 and the “K1 of VPM (2T4K model)” value ([5]; inhibitor 5 mg/kg i.v.) was 0.93±0.26 (17.0) ml·ml^−1·min^−1. For the same compound, the “k2 of VPM (2T4K model)” value ([5]; inhibitor 5 mg/kg i.v.) was 0.22±0.06 (58.8) min^−1, the “k3 of VPM (2T4K model)” value ([5]; inhibitor 5 mg/kg i.v.) was 0.28±0.05 (79.7) min^−1 and the “k4 of VPM (2T4K model)” value ([5]; inhibitor 5 mg/kg i.v.) was 0.16±0.01 (35.4) min^−1. The “DV (Logan) of VPM” value ([5]; inhibitor 7.5 mg/kg i.v.) was 14.20±0.13 (0.4) ml·ml^−1, the “DV of VPM (2T4K model)” value ([5]; inhibitor 7.5 mg/kg i.v.) was 14.55±0.06 (2.6) ml·ml^−1 and the “K1 of VPM (2T4K model)” value ([5]; inhibitor 7.5 mg/kg i.v.) was 0.98±0.08 (6.4) ml·ml^−1·min^−1. The “k2 of VPM (2T4K model)” value ([5]; inhibitor 7.5 mg/kg i.v.) was 0.15±0.02 (43.5) min^−1, the “k3 of VPM (2T4K model)” value ([5]; inhibitor 7.5 mg/kg i.v.) was 0.25±0.07 (55.4) min^−1 and the “k4 of VPM (2T4K model)” value ([5]; inhibitor 7.5 mg/kg i.v.) was 0.22±0.04 (30.3) min^−1.
